Test results taken from EP4818168A1, “FUSED RING COMPOUND, PHARMACEUTICAL COMPOSITION THEREOF AND USE THEREOF” (priority 2023, dated 2025).
Read-outs that look alike come from different tables or passages of the source.

Columns and labels:
AURKA = molecular target: T1, AURKA (Homo sapiens, UniProt O14965); type: cell-based; conditions: Jurkat cells, 24 h, Table 2
T1 construct: endogenous in cells; host or cells: Jurkat cells
T1 sequence (O14965 1-403): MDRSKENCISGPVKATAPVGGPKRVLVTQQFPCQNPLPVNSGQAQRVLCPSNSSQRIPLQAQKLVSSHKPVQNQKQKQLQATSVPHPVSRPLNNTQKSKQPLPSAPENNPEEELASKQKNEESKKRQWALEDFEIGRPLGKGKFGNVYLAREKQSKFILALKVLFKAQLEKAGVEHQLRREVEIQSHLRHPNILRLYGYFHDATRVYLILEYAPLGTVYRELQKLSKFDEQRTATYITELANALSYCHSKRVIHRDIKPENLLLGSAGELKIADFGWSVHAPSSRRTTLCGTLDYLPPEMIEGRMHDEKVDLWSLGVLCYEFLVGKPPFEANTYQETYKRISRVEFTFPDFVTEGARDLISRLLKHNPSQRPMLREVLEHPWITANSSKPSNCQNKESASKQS
Description: WB is a classical biochemical experimental method used to detect the abundance of a target protein in a sample of cells or biological tissue. It relies on specific antigen-antibody binding to detect protein signals from the sample processed by gel electrophoresis: the protein specifically binds to a primary antibody at an epitope; the primary antibody is then conjugated with a secondary antibody to amplify the signal cascade; the signal is read out by chemiluminescent or fluorescent detection. The intracellular protein content is ultimately characterized by the intensity of the optical signals. […] The DC50 value can be calculated by curve fitting of the protein WB exposure signals.
The experimental procedure is as follows: • 1. Seed Jurkat cells into a 12-well plate at 1×10^6 cells/500 µL/well. • 2. Mix the culture medium with the compound to a concentration that is twice the desired final concentration. […] Transfer the cell suspension to a centrifuge tube. Rinse the 12-well plate with PBS and then transfer the PBS from the plate to the same centrifuge tube. Centrifuge at 3000 rpm for 5 min at room temperature. Aspirate the supernatant using a vacuum pump. […] Lyse on ice for 20 min. • 4. Centrifuge the lysed sample at 13000 rpm for 20 min at 4°C. Mix the supernatant with 5× protein loading buffer. Boil at 100°C for 5 min and then cool. Store the denatured protein sample at -20°C. • 5. […] Run electrophoresis at 80 V for 20 min, and then at 120 V constant voltage for 60 min. • 6. Transfer the protein onto a nitrocellulose membrane in an ice bath at 250 mA constant current for 90 min. • 7. […] Incubate with a primary antibody overnight at 4°C. • 9. […] Incubate with a secondary antibody for 1-2 h at room temperature. • 10. […] Expose and image the membrane using a LICOR Odyssey DLx imager.

H82 cells = assay: cells; type: cell-based
Protocol: CellTiter-Glo (CTG) is a rapid cell viability test method based on ATP detection. […] Adenosine triphosphate (ATP) participates in various enzymatic reactions in organisms and is an indicator of living cell metabolism. Its content directly reflects the number of living cells and cell status. During the experiment, equal volume of CTG reagent is added to the cultured cells to measure the luminescence value. The chemiluminescent signal value is proportional to the amount of ATP, thus reflecting the number of viable cells. Therefore, cell viability can be obtained by detecting the ATP content. Compounds that affect cell viability will inhibit cell viability in a concentration-dependent manner, allowing a curve to be fitted to obtain the IC50 value.
The experimental procedure is as follows: • 11. Place the cell suspension in a 15 mL centrifuge tube, centrifuge at 1000 rpm for 5 min at room temperature, discard the supernatant, and collect the cell pellet. • 12. Resuspend the cell pellet with preheated complete cell culture medium (RPMI1640+10%FBS+1%PS), and use a Countess® automated cell counter to detect cell viability and density. […] Transfer the compound solution to a 96-well plate seeded with cells (final concentration of DMSO 0.1%), and place in a cell incubator at 37°C, 5% CO2 for 6 days. • 15. […] Protect from light during the whole process. Perform optical signal readings using a SpectraMax i3x reader. • 16. Data analysis: Remaining activity (%) = 100% * (1 - ((LumDMSO - Lummedium) - Lumsample) / (LumDMSO - LumPBS/medium)). Use GraphPad Prism 9.0 software to draw an S-shaped dose-survival rate curve and calculate the IC50 value using a nonlinear regression model.

[1] = Homo sapiens, NCI-H82, read-out: IC50 in H82 Cells
[2] = Homo sapiens, NCI-H82, H82 cells, 4000 cells/well, CellTiter-Glo, read-out: IC50 in H82 Cells

With `O=C1CCN(c2ccc(N3CCC4(CC3)CC(N3CCN(c5ccc(Nc6ncc7c(n6)-c6ccc(Cl)cc6C(c6c(F)cccc6F)=NC7)cc5)CC3)CO4)nc2)C(=O)N1` (racemic) [Compound A340] the “Percentage of AURKA Degradation Induced by 100 nM Compound in Jurkat Cells” value (from here on “Percentage … by 100 nM Compound in Jurkat Cells”) (AURKA) was “+++ (Degradation > 70%)”, the “Percentage of AURKA Degradation Induced by 1 µM Compound in Jurkat Cells” value (from here on “Percentage … by 1 µM Compound in Jurkat Cells”) (AURKA) was “+++ (Degradation > 70%)” and the IC50 (H82 cells; [1]) was under 1000 nM.
For `O=C1CCN(c2ccc(N3CCOC4(CC(N5CCN(C67CC(Nc8ncc9c(n8)-c8ccc(Cl)cc8C(c8c(F)cccc8F)=NC9)(C6)C7)C(=O)C5)C4)C3)nc2)C(=O)N1` (single isomer, unassigned) [Compound A348], the “Percentage … by 100 nM Compound in Jurkat Cells” value (AURKA) was “+++ (Degradation > 70%)”, the “Percentage … by 1 µM Compound in Jurkat Cells” value (AURKA) was “++ (30% < Degradation ≤ 70%)” and the IC50 (H82 cells; [1]) was under 1000 nM.
For `O=C1CCN(c2ccc(N3CCOC4(CC(N5CCN(C67CC(Nc8ncc9c(n8)-c8ccc(Cl)cc8C(c8c(F)cccc8F)=NC9)(C6)C7)C(=O)C5)C4)C3)nc2)C(=O)N1` (single isomer, unassigned) [Compound A349], the “Percentage … by 100 nM Compound in Jurkat Cells” value (AURKA) was “++ (30% < Degradation ≤ 70%)”, the “Percentage … by 1 µM Compound in Jurkat Cells” value (AURKA) was “++ (30% < Degradation ≤ 70%)” and the IC50 (H82 cells; read-out: IC50 in H82 Cells, H82 cells, 4000 cells/well, CellTiter-Glo) was under 1000 nM.
`O=C1CCN(c2ccc(N3CCC4(CC3)CC(NC(=O)c3ccc(Nc5ncc6c(n5)-c5ccc(Cl)cc5C(c5c(F)cccc5F)=NC6)cc3)C4)cc2F)C(=O)N1` [Compound A96] was tested, and the “Percentage … by 100 nM Compound in Jurkat Cells” value (AURKA) was “++ (30% < Degradation ≤ 70%)”, the “Percentage … by 1 µM Compound in Jurkat Cells” value (AURKA) was “+++ (Degradation > 70%)” and the IC50 (H82 cells; [2]) was under 1000 nM.
For `O=C1CCN(c2ccc(N3CCN(CCC#Cc4cccc(Nc5ncc6c(n5)-c5ccc(Cl)cc5C(c5c(F)cccc5F)=NC6)c4)CC3)cc2)C(=O)N1` [Compound A97], the “Percentage … by 100 nM Compound in Jurkat Cells” value (AURKA) was “+ (Degradation ≤ 30%)”, the “Percentage … by 1 µM Compound in Jurkat Cells” value (AURKA) was “+ (Degradation ≤ 30%)” and the IC50 (H82 cells; [2]) was under 1000 nM.
`O=C1CCN(c2cccc(N3CCN(CC#Cc4cccc(Nc5ncc6c(n5)-c5ccc(Cl)cc5C(c5c(F)cccc5F)=NC6)c4)CC3)c2)C(=O)N1` [Compound A98] was tested, and the IC50 (H82 cells; [1]) was under 1000 nM.
In the case of `O=C1CCN(c2ccc(N3CCN(CC#Cc4cccc(Nc5ncc6c(n5)-c5ccc(Cl)cc5C(c5c(F)cccc5F)=NC6)c4)CC3)cc2)C(=O)N1` [Compound A99], the “Percentage … by 100 nM Compound in Jurkat Cells” value (AURKA) is reported as “++ (30% < Degradation ≤ 70%)”, the “Percentage … by 1 µM Compound in Jurkat Cells” value (AURKA) is reported as “+ (Degradation ≤ 30%)” and the IC50 (H82 cells; [2]) is reported as under 1000 nM.
For `O=C1CCN(c2cccc(N3CCN(CCC#Cc4cccc(Nc5ncc6c(n5)-c5ccc(Cl)cc5C(c5c(F)cccc5F)=NC6)c4)CC3)c2)C(=O)N1` [Compound A100], the “Percentage … by 100 nM Compound in Jurkat Cells” value (AURKA) was “++ (30% < Degradation ≤ 70%)”, the “Percentage … by 1 µM Compound in Jurkat Cells” value (AURKA) was “++ (30% < Degradation ≤ 70%)” and the IC50 (H82 cells; [2]) was under 1000 nM.
`O=C1CCN(c2cccc(C#CCN3CCn4c(cnc4-c4ccc(Nc5ncc6c(n5)-c5ccc(Cl)cc5C(c5c(F)cccc5F)=NC6)cc4)C3)c2)C(=O)N1` [Compound A145] gave an IC50 (H82 cells; [2]) of under 1000 nM.
With `O=C1CCN(c2cncc(N3CCN(C4CN(c5cccc(Nc6ncc7c(n6)-c6ccc(Cl)cc6C(c6c(F)cccc6F)=NC7)c5)C4)CC3)c2C(F)F)C(=O)N1` [Compound A193] the “Percentage … by 100 nM Compound in Jurkat Cells” value (AURKA) was “+ (Degradation ≤ 30%)” and the “Percentage … by 1 µM Compound in Jurkat Cells” value (AURKA) was “+ (Degradation ≤ 30%)”.
`O=C1CCN(c2cnc(N3CC(N4CCN(c5ccc(Nc6ncc7c(n6)-c6ccc(Cl)cc6C(c6c(F)cccc6F)=NC7)cc5)C(=O)C4)C3)s2)C(=O)N1` [Compound A201] was tested, and the “Percentage … by 100 nM Compound in Jurkat Cells” value (AURKA) was “++ (30% < Degradation ≤ 70%)” and the “Percentage … by 1 µM Compound in Jurkat Cells” value (AURKA) was “++ (30% < Degradation ≤ 70%)”.
In the case of `O=C1CCN(c2ccc(N3CC4(C3)CN(C3CN(c5ccc(Nc6ncc7c(n6)-c6ccc(Cl)cc6C(c6c(F)cccc6F)=NC7)cc5)C3)C4)nc2)C(=O)N1` [Compound A204], the “Percentage … by 100 nM Compound in Jurkat Cells” value (AURKA) is reported as “+++ (Degradation > 70%)” and the “Percentage … by 1 µM Compound in Jurkat Cells” value (AURKA) is reported as “++ (30% < Degradation ≤ 70%)”.
For `O=C1CCN(c2cncc(N3CCC(N4CC5(CN(c6cccc(Nc7ncc8c(n7)-c7ccc(Cl)cc7C(c7c(F)cccc7F)=NC8)c6)C5)C4)CC3)c2)C(=O)N1` [Compound A241], the “Percentage … by 100 nM Compound in Jurkat Cells” value (AURKA) was “+++ (Degradation > 70%)” and the “Percentage … by 1 µM Compound in Jurkat Cells” value (AURKA) was “++ (30% < Degradation ≤ 70%)”.
For `O=C1CCN(c2ccc(N3CCN(CC4CN([C@H]5CC[C@H](Nc6ncc7c(n6)-c6ccc(Cl)cc6C(c6c(F)cccc6F)=NC7)CC5)C4)CC3)nc2)C(=O)N1` [Compound A246], the “Percentage … by 100 nM Compound in Jurkat Cells” value (AURKA) was “+ (Degradation ≤ 30%)” and the “Percentage … by 1 µM Compound in Jurkat Cells” value (AURKA) was “++ (30% < Degradation ≤ 70%)”.
`O=C1CCN(c2ccc(N3CCN(CC4CN([C@H]5CC[C@@H](Nc6ncc7c(n6)-c6ccc(Cl)cc6C(c6c(F)cccc6F)=NC7)CC5)C4)CC3)nc2)C(=O)N1` [Compound A247] was tested, and the “Percentage … by 100 nM Compound in Jurkat Cells” value (AURKA) was “+ (Degradation ≤ 30%)” and the “Percentage … by 1 µM Compound in Jurkat Cells” value (AURKA) was “+ (Degradation ≤ 30%)”.
In the case of `CN(C)CCOc1ccc2c(c1)C(c1c(F)cccc1F)=NCc1cnc(Nc3ccc(N4CC(CN5CCN(c6ccc(N7CCC(=O)NC7=O)cn6)CC5)C4)cc3)nc1-2` [Compound A260], the “Percentage … by 100 nM Compound in Jurkat Cells” value (AURKA) is reported as “++ (30% < Degradation ≤ 70%)” and the “Percentage … by 1 µM Compound in Jurkat Cells” value (AURKA) is reported as “++ (30% < Degradation ≤ 70%)”.
With `CP(C)(=O)c1ccc2c(c1)C(c1c(F)cccc1F)=NCc1cnc(Nc3ccc(N4CCN(C5CCN(c6ccc(N7CCC(=O)NC7=O)cn6)CC5)CC4)cc3)nc1-2` [Compound A266] the “Percentage … by 100 nM Compound in Jurkat Cells” value (AURKA) was “++ (30% < Degradation ≤ 70%)” and the “Percentage … by 1 µM Compound in Jurkat Cells” value (AURKA) was “++ (30% < Degradation ≤ 70%)”.
For `O=C1CCN(c2ccc(N3CCC(F)(CN4CCN(C56CC(Nc7ncc8c(n7)-c7ccc(Cl)cc7C(c7nccs7)=NC8)(C5)C6)C(=O)C4)CC3)nc2)C(=O)N1` [Compound A278], the “Percentage … by 100 nM Compound in Jurkat Cells” value (AURKA) was “++ (30% < Degradation ≤ 70%)” and the “Percentage … by 1 µM Compound in Jurkat Cells” value (AURKA) was “+++ (Degradation > 70%)”.
`COc1cc(Nc2ncc3c(n2)-c2ccc(Cl)cc2C(c2c(F)cccc2F)=NC3)ccc1N1CC(F)(CN2CCN(c3ccc(N4CCC(=O)NC4=O)cn3)CC2)C1` [Compound A289] was tested, and the “Percentage … by 100 nM Compound in Jurkat Cells” value (AURKA) was “+++ (Degradation > 70%)” and the “Percentage … by 1 µM Compound in Jurkat Cells” value (AURKA) was “+++ (Degradation > 70%)”.
In the case of `O=C1CCN(c2ccc(N3CCC(N4CCN(c5ccc(Nc6ncc7c(n6)-c6ccc(Cl)cc6C(c6c(F)cccc6F)=NC7)cc5)CC4=O)CC3)nc2)C(=O)N1` [Compound A295], the “Percentage … by 100 nM Compound in Jurkat Cells” value (AURKA) is reported as “+++ (Degradation > 70%)” and the “Percentage … by 1 µM Compound in Jurkat Cells” value (AURKA) is reported as “++ (30% < Degradation ≤ 70%)”.
With `O=C1CCN(c2ccc(N3CCC(N4CCN(c5ccc(Nc6ncc7c(n6)-c6ccc(Cl)cc6C(C6CC6)=NC7)cc5)C(=O)C4)CC3)nc2)C(=O)N1` [Compound A328] the “Percentage … by 100 nM Compound in Jurkat Cells” value (AURKA) was “++ (30% < Degradation ≤ 70%)” and the “Percentage … by 1 µM Compound in Jurkat Cells” value (AURKA) was “++ (30% < Degradation ≤ 70%)”.
